From patent publication US6620843B2, “Anticancer treatment using triptolide prodrugs” (priority 2001, dated 2003)
Where two headings read alike, the source gives them in different places.

Test system: HT-29 human colon tumors
Protocol: Human Tumor Xenograft Study. An HT-29 human colon cancer cell line was purchased from ATCC (Manassas, Va.). Cells were cultured in DMEM (Dulbecco's Modified Eagle's Medium) from GIBIOBRL (Grand Island, N.Y.) with 10% fetal bovine serum (FBS) supplemented with L-glutamine and Penicillin/Streptomycin. The tumor cells were harvested when cultures reached 80-90% confluence. The supernatants were discarded and the cell pellets were suspended to 1×10^8 cells/ml in DMEM medium without FBS. HT-29 cells (5×10^6) were implanted intradermally on the back of each mouse. Tumor size was monitored by measuring the length (L), width (W), and height (H) of each tumor and calculating tumor volume (Vol=½×4/3π×(L/2)×(W/2)×H).
Mice bearing human tumor cell xenografts were treated with PG490-88 IP daily for 5 days per week. The compound was administered as the sodium salt. CPT-11 was administered IV twice per week. 5-FU was given IP daily for 5 days per week. The stock solutions of each therapeutic agent were diluted in 0.9% NaCl for dosing. The agents were given to mice at 100 μl per 10 g of mouse body weight. Mice were dosed for two weeks, and 0.9% NaCl was used as the vehicle control. Tumor volume was monitored, and toxicity of the chemotherapeutic treatment was monitored by weighing the mice every day.

O=c1[nH]cc(F)c(=O)[nH]1 [5-FU, 5-fluorouracil, reference compound]
tumor growth inhibition (in words) (5-FU 20 mg/kg): only slightly inhibited tumor growth
percent increase in mean tumor volume at day 16 (5-FU 20 mg/kg IP daily 5 days per week, day 16, control group 721%): 470%
toxicity in tumor-bearing mice (mouse, in vivo): showed signs of toxicity

CCc1c2c(nc3ccc(OC(=O)N4CCC(N5CCCCC5)CC4)cc13)-c1cc3c(c(=O)n1C2)COC(=O)[C@]3(O)CC [CPT-11, irinotecan, reference compound]
tumor growth inhibition (in words) (CPT-11 22 mg/kg): slight to moderate

CC(C)[C@]12O[C@H]1[C@@H]1O[C@]13[C@]1(O[C@H]1C[C@H]1C4=C(CC[C@@]13C)C(=O)OC4)[C@@H]2OC(=O)CCC(=O)O [PG490-88, triptolide 14-succinate]
tumor growth inhibition (in words) (0.125 mg/kg, by day 16): slightly inhibited
tumor growth inhibition (in words) (0.25 mg/kg, by day 16): moderate inhibition
tumor growth inhibition (in words) (0.75 mg/kg, by day 16): strongly inhibited tumor growth and induced tumor regression
tumor growth inhibition, dose dependence (in words) (0.125-0.75 mg/kg): inhibited HT-29 tumor growth in a dose-dependent manner
percent increase in mean tumor volume at day 16 (PG490-88 0.125 mg/kg IP daily 5 days per week, day 16 vs initial value, vehicle control 721%): 462%
percent increase in mean tumor volume at day 16 (PG490-88 0.25 mg/kg IP daily 5 days per week, day 16 vs initial value, vehicle control 721%): 131%
percent decrease in mean tumor volume at day 16 from the initial value (PG490-88 0.75 mg/kg IP daily 5 days per week, day 16): 54%
mean tumor volume at day 9 (in words) (PG490-88 0.75 mg/kg, day 9): decreased from the day 5 value to approximately the initial value
